Reference: patent US5719287A, “Intermediates for inhibitors of HIV protease and method of preparation thereof” (Eli Lilly and Company, priority 1995, dated 1998)

Molecular target: T1, HIV-1 protease (Human immunodeficiency virus type 1 group M subtype B, UniProt P04585)
T1 construct: Purified HIV-1 protease was obtained as described below; made in house; host or cells: E. coli K12 L507/pHP10D (NRRL B-18560)
Test: biochemical
Details: for IC50: read-out: Fluorescence Assay IC50 (converted)
Protocol: N^α -Biotin-[…]Ne-FITC)-OH
The purified peptide was labeled as follows with a fluorescent marker at the C-terminal end for use in the assay. N^α -Biotin-Gly-Ser-Gln-Asn-Tyr-Pro-lle-Val-Gly-Lys-OH (1.206 g, 0.936 mmoles) was dissolved in 100 mL of 0.1M sodium borate, pH 9.5 with stirring. Then, 3 g of fluorescein isothiocyanate (7.7 mmol) was dissolved in 15 mL dimethyl sulfoxide and the solution added to the reaction in 10 equal portions over the course of a two hour period. The reaction was allowed to proceed for a further one hour after the final addition had been made. The pH of the solution was adjusted to 3 with 5N HCl. A precipitate formed which was removed from the reaction by centrifugation.
Fluorescence HIV-1 Protease Inhibitor Assay Procedure.
To each well of a round bottom, 96-well plate is added 20 μl of the Enzyme Solution followed by 10 μl of the compound to be evaluated in 20% aqueous DMSO. Purified HIV-1 protease was obtained as described below. The solution is incubated for one hour at room temperature and then 20 μl of a solution of the substrate N^α -Biotin-[…]N^e -FITC)-OH, in MES-ALB buffer (1.5 μl/ml) is added to each well. The solutions are incubated for 16 hours at room temperature and thereafter to each well is added 150 μl of MES-ALB buffer.
To each well of a 96-well Pandex plate is added 25 μl of the Avidin Coated Beads Solution. Next, 25 μl of the diluted incubation solutions, described above, are added to each well of the Pandex plate. The solutions are mixed well and the plates are loaded into a Pandex® machine, washed, evacuated and read. Sample detection was performed by excitation at 485 nm and reading the resulting epifluorescence at 535 nm.
A culture of E. coli K12 L507/pHP10D was grown to mid-log phase at 32° C. in LB media containing 12.5 μg/ml tetracycline. The cultivation temperature was quickly elevated to 40° C. to induce gene expression, and the cells were allowed to grow for 2.5 hours at this temperature before the culture was quickly chilled on ice. The cells were centrifuged and the cell pellet was resuspended in 20 ml 50 mmol MES buffer (pH 6.0) containing 1 mmol EDTA, 1 mmol DTT, 1 mmol PMSF, and 10% glycerol (Buffer A). Cells were lysed by sonication using a Fischer Model 300 Dismembrator and a microtip probe. […] Enzymatic activity was measured by HPLC using the synthetic peptide SQNYPIV as described in Margolin et al., Biochem. Biophys. Res. Commun., 167, 554-560 (1990); the production of the pl peptide (SQNY) was measured.
Active fractions were pooled, made 1.2M in ammonium sulfate, and applied to a hexyl agarose column (2.0×18 cm) equilibrated in Buffer A containing 1.2M ammonium sulfate. The sample, in 125 ml (1.85 mg/ml), was loaded at a flow rate of 1 ml/min at 4° C. […] The column was then washed isocratically in Buffer A for 120 min. Active fractions were pooled, concentrated to 10 ml using an Amicon stirred cell with a YM-10 membrane, and applied at 1 ml/min to a MonoS cation exchange column (1.0×10 cm) equilibrated in Buffer A. After washing isocratically for 30 min, protease was eluted using a linear gradient of 0-0.45M NaCl in Buffer A over 40 min followed by an isocratic wash with Buffer A containing 0.45M NaCl over 30 min. Chromatography was performed at 25° C.
Pooled active fractions were concentrated to 200 ul using an Amicon stirred cell and a YM-10 membrane, and the protease was then applied to a Superose 6 size exclusion column equilibrated in Buffer A containing 0.1M NaCl. The column was washed isocratically in this buffer at a flow rate of 0.5 ml/min.

## CC(C)(C)NC(=O)c1ccccc1C[C@@H](O)[C@H](Cc1ccccc1)NC(=O)[C@H](CC(N)=O)NC(=O)COc1ccc2ccccc2n1 [Example 32, [1S-(1R*, 4R*, 5S*)]-N-(1-(2-amino-2-oxoethyl)-2-oxo-3-aza-4-phenylmethyl-5-hydroxy-6-(2-(1-t-butylamino-1-oxomethyl)phenyl)hexyl)-2-quinolinoxy acetamide]
  IC50: 3.75 nM

## COc1cc(C(=O)N[C@@H](CC(N)=O)C(=O)N[C@@H](Cc2ccccc2)[C@H](O)Cc2ccccc2C(=O)NC(C)(C)C)nc2ccccc12 [Example 64, [1S-(1R*, 4R*, 5S*) ]-N-(1-(2-amino-2-oxoethyl)-2-oxo-3-aza-4-phenylmethyl-5-hydroxy-6-(2-(1-t-butylamino-1-oxomethyl)phenyl)hexyl)-4-methoxyquinolin-2-yl carboxamide]
  IC50: 0.782 nM

## CC(C)(C)NC(=O)c1ccccc1C[C@@H](O)[C@H](Cc1ccccc1)NC(=O)[C@H](CC(N)=O)NC(=O)c1cc(Cl)c2ccccc2n1 [Example 53, [1S-(1R*, 4R*, 5S*)]-N-(1-(2-amino-2-oxoethyl)-2-oxo-3-aza-4-phenylmethyl-5-hydroxy-6-(2-(1-t-butylamino-1-oxomethyl)phenyl)hexyl)-4-chloroquinolin-2-yl carboxamide]
  IC50: 1.2 nM

## CC(C)(C)NC(=O)c1ccccc1C[C@@H](O)[C@H](Cc1ccccc1)NC(=O)[C@H](CC(N)=O)NC(=O)NCc1ccccc1 [Example 57, [2R-(2R*, 3S*, 6S*)]-N-t-butyl-2-(2-hydroxy-3-phenylmethyl-4-aza-5-oxo-6-(2-amino-2-oxoethyl)-7-aza-8-oxo-8-(N-benzylamino)octyl)benzamide]
  IC50: 16.5 nM

## CCC(C)[C@H](NC(=O)OCc1ccc2ccccc2n1)C(=O)N[C@@H](Cc1ccccc1)[C@H](O)Cc1ccccc1C(=O)NC(C)(C)C (stereo partly drawn) [Example 38, [2R-(2R*, 3S*, 6S*)]-N-t-butyl-2-(2-hydroxy-3-phenylmethyl-4-aza-5-oxo-6-(1-methylpropyl)-6-(N-quinolin-2-ylmethoxycarbonylamino)hexyl)benzamide]
  IC50: 1.21 nM

## CC(C)(C)NC(=O)c1ccccc1C[C@@H](O)[C@H](Cc1ccccc1)NC(=O)[C@H](CC(N)=O)NC(=O)c1ccccc1 [Example 28, [1S-(1R*, 4R*, 5S*)]-N-(1-(2-amino-2-oxoethyl)-2-oxo-3-aza-4-phenylmethyl-5-hydroxy-6-(2-(1-t-butylamino-1-oxomethyl)phenyl)hexyl)phenyl carboxamide]
  IC50: 12.5 nM

## CC(C)(C)NC(=O)c1occc1C[C@@H](O)[C@H](Cc1ccccc1)NC(=O)[C@H](CC(N)=O)NC(=O)c1ccc2ccccc2n1 [Example 40, [1S-(1R*, 4R*, 5S*)]-N-(1-(2-amino-2-oxoethyl)-2-oxo-3-aza-4-phenylmethyl-5-hydroxy-6-(2-(1-t-butylamino-1-oxomethyl)fur-3-yl)hexyl)-2-quinolinyl carboxamide]
  IC50: 46.7 nM

## CC(C)(C)NC(=O)c1ccccc1C[C@@H](O)[C@H](Cc1ccccc1)NC(=O)[C@H](CCC(N)=O)NC(=O)c1ccc2ccccc2n1 [Example 54, [1S-(1R*, 4R*, 5S*)]-N-(1-(3-amino-3-oxopropyl)-2-oxo-3-aza-4-phenylmethyl-5-hydroxy-6-(2-(1-t-butylamino-1-oxomethyl)phenyl)hexyl)-2-quinolinyl carboxamide]
  IC50: 78.6 nM

## CC(C)(C)NC(=O)c1ccccc1C[C@@H](O)[C@H](Cc1ccccc1)NC(=O)[C@H](CC(=O)O)NC(=O)c1ccc2ccccc2n1 [Example 43, [1S-(1R*, 4R*, 5S*)]-N-(1-(2-hydroxy-2-oxoethyl)-2-oxo-3-aza-4-phenylmethyl-5-hydroxy-6-(2-(1-t-butylamino-1-oxomethyl)phenyl)hexyl)-2-quinolinyl carboxamide]
  IC50: 2.13 nM

## CC(C)(C)NC(=O)c1ccccc1C[C@@H](O)[C@H](Cc1ccccc1)NC(=O)[C@H](CC(=O)NCc1nc2ccccc2[nH]1)NC(=O)c1ccc2ccccc2n1 [Example 49, [1S-(1R*, 4R*, 5S*)]-N-(1-(2-(N-2-benzimidazolylmethyl)amino)-2-oxoethyl)-2-oxo-3-aza-4-phenylmethyl-5-hydroxy-6-(2-(1-t-butylamino-1-oxomethyl)phenyl)hexyl)-2-quinolinyl carboxamide]
  IC50: 0.676 nM

## CC1(NC(=O)c2ccccc2C[C@@H](O)[C@H](Cc2ccccc2)NC(=O)[C@H](CC(N)=O)NC(=O)c2ccc3ccccc3n2)CCCC1 [Example 69, [1S-(1R*, 4R*, 5S*) ]-N-(1-(2-amino-2-oxoethyl) -2-oxo-3-aza-4-phenylmethyl-5-hydroxy-6-(2-(1-(1-methylcyclopent-1-yl)amino-1-oxomethyl)phenyl)hexyl)-2-quinolinyl carboxamide]
  IC50: 1.2 nM

## CC(C)(C)NC(=O)c1ccccc1C[C@@H](O)[C@H](Cc1ccccc1)NC(=O)[C@H](CC(N)=O)NC(=O)OCc1ccccc1 (relative stereo) [Example 11, [2R-(2R*, 3S*, 6S*)]-N-t-butyl-2-(2-hydroxy-3-phenylmethyl-4-aza-5-oxo-6-(2-amino-2-oxomethyl)-6-phenylmethoxycarbonyl)hexyl)benzamide]
Purified HIV-1 protease, MES-ALB buffer pH 5.5, 1 h preincubation, 16 h with substrate, room temperature, IC50 values for Examples 2-70 are standardized relative to Ex 1
  Fluorescence Assay IC50: 0.01 µg/mL

## CC(C)(C)NC(=O)c1oc2ccccc2c1C[C@@H](O)[C@H](Cc1ccccc1)NC(=O)[C@H](CC(N)=O)NC(=O)c1ccc2ccccc2n1 [Example 42, [1S-(1R*, 4R*, 5S*)]-N-(1-(2-amino-2-oxoethyl)-2-oxo-3-aza-4-phenylmethyl-5-hydroxy-6-(2-(1-t-butylamino-1-oxomethyl)benzofur-3-yl)hexyl)-2-quinolinyl carboxamide]
  IC50: 523 nM

## Cc1ccc(C(=O)NC(C)(C)C)c(C[C@@H](O)[C@H](Cc2ccccc2)NC(=O)[C@H](CC(N)=O)NC(=O)c2ccc3ccccc3n2)c1 [Example 65, [1S-(1R*, 4R*, 5S*)]-N-(1-(2-amino-2-oxoethyl)-2-oxo-3-aza-4-phenylmethyl-5-hydroxy-6-(2-(1-t-butylamino-1-oxomethyl)-5-methylphenyl)hexyl)-2-quinolinyl carboxamide]
  IC50: 1.92 nM

## CC(C)(C)NC(=O)c1ccccc1C[C@@H](O)[C@H](Cc1ccccc1)NC(=O)[C@H](CC(=O)Nc1ccncc1)NC(=O)c1ccc2ccccc2n1 [Example 48, [1S-(1R*, 4R*, 5S*)]-N-(1-(2-(N-pyrid-4-yl)amino)-2-oxoethyl)-2-oxo-3-aza-4-phenylmethyl-5-hydroxy-6-(2-(1-t-butylamino-1-oxomethyl)phenyl)hexyl)-2-quinolinyl carboxamide]
  IC50: 1.16 nM

## Cc1cc(C)c2ccc(C(=O)N[C@@H](CC(N)=O)C(=O)N[C@@H](Cc3ccccc3)[C@H](O)Cc3ccccc3C(=O)NC(C)(C)C)nc2c1 [Example 63, [1S-(1R*, 4R*, 5S*)]-N-(1-(2-amino-2-oxoethyl)-2-oxo-3-aza-4-phenylmethyl-5-hydroxy-6-(2-(1-t-butylamino-1-oxomethyl)phenyl)hexyl)-5,7-dimethylquinolin-2-yl carboxamide]
  IC50: 0.784 nM

## CC(C)(C)NC(=O)c1ccccc1C[C@@H](O)[C@H](Cc1ccccc1)NC(=O)[C@H](CC(N)=O)NC(=O)C1Cc2ccccc2CN1 (single isomer, unassigned) [Example 37, [1S-(1R*, 4R*, 5S*)]-N-(1-(2-amino-2-oxoethyl)-2-oxo-3-aza-4-phenylmethyl-5-hydroxy-6-(2-(1-t-butylamino-1-oxomethyl)phenyl)hexyl)-3-(1,2,3,4-tetrahydroisoquinolinyl) carboxamide]
  IC50: 34.2 nM
